The results in this text go back to patent publication US10428028B2, “HDAC inhibitors” (BIOMARIN PHARMACEUTICAL INC., priority 2013, dated 2019).

The nature of data set [1]: Brain penetration studies. Type of data set: in vivo. The note with it: C57/BL6/J, mouse; mice, s.c. 5 or 50 mg/kg or i.v. 5 mg/kg; Cmax(brain)/Cmax(plasma); read-out: BPR (brain/plasma ratio). The method, then: Test compounds were prepared at either 0.5 mg/ml or 5 mg/ml in 30% hydroxypropyl-β-cyclodextrin, 100 mM sodium acetate pH 5.5, 5% DMSO. C57/BL6/J mice were dosed s.c. at 5 mg/kg or 50 mg/kg, or i.v. at 5 mg/kg. Animals were euthanized at pre-dose, 5, 15, 30 min, 1, 2 and 4 hours post-dose and plasma and brain obtained. Three animals per dose per time points were used. The levels of compound in the plasma and brain were determined by standard LC/MS/MS methods. Brain/plasma ratio (BPR) was calculated as the ratio of the Cmax(brain)/Cmax(plasma). The results are shown in Table 5, where IA corresponds to a BPR less than 0.1, D is between 0.1 and 0.2, C is 0.2 to 0.5, B comprises 0.5 to 1 and A is greater than 1.

A further data set deals with Frataxin (FXN) mRNA. Nature of the data set: Effect of HDAC inhibitors on frataxin (FXN) mRNA expression. It counts as cell-based, human (Friedreich's ataxia patient primary lymphocytes). The note with it: Friedreich's ataxia patient primary lymphocytes, 48 hours. The method, then: Blood is collected from Friedreich's ataxia patient donors into tubes containing the anti-coagulant EDTA. Primary lymphocytes are isolated using Lymphocyte Separation Medium (MP Biomedicals, Solon, Ohio) following the manufacturer's instructions and including a few modifications made by Repligen. After a final wash in Phosphate Buffered Saline (PBS), the cells are distributed into a 6-well cell culture plate in cell growth medium. The test HDAC inhibitor compound is added to cells in a dose escalating manner (usually concentrations range from 1 to 10 μM) and 0.1% DMSO is added to one well of cells as a no treatment control. […] The RNA yield and concentration is determined using a Nanodrop spectrophotometer (Thermo Fisher Scientific, Waltham, Mass.) and depending on the RNA concentration, one of two protocols is used to measure frataxin (FXN) transcript levels. […] In both methods each RNA sample is analyzed in triplicate (preferably) or duplicate (minimally) using a one-step qRT-PCR master mix that contains all the components necessary for cDNA synthesis and PCR amplification in a single, continuous reaction. […] The amount of FXN (or GAPDH) in the sample is determined as the relative quantity to the calibrator where the calibrator sample is assigned an arbitrary quantity of 1. […] The relative quantity of FXN is normalized to cell number and RNA input. […]

Data set [2] can be described thus: Acid stability determination. It counts as physicochemical. The settings on record: 0.01 M HCl, 50° C., 100 μM. The method, then: A 100 μM solution of test compound was prepared by dilution of a 10 mM DMSO stock solution in a 0.01 M solution of HCl in deionized water. Immediately after mixing, an aliquot (100 μL) was sampled and analyzed by HPLC/UV. The area under the compound peak was determined and used as the time zero reference point. The remainder of the acid sample was incubated at 50° C. and samples were taken after 2, 4, and 24 hours of incubation. On a few occasions, samples were taken at 30 rather than 24 hours. These were analyzed by the same HPLC/UV method and the area of the peak corresponding to the test compound was measured. Percent remaining at a given time point was then calculated as the ratio of the area under the peak after incubation to that at time zero times 100. In those cases where a 30 hour time point was recorded, the percent remaining at 24 hours was obtained by interpolation of the percent remaining versus time curve assuming a unimolecular process, i.e. a monoexponential decay. Percent remaining after 24 hours incubation are presented in Table 5 below, where A corresponds to more than 60%, B is between 40 and 60%, C covers 20 to 40% and D means less than 20%.

With `Nc1ccccc1NC(=O)c1ccc2nn(Cc3cncc(F)c3)cc2c1` [Compound A14, N-(2-aminophenyl)-2-((5-fluoropyridin-3-yl)methyl)-2H-indazole-5-carboxamide], the Kp in data set [1] fell in the range of 0.2 to 0.5. In the case of `Nc1ccccc1NC(=O)c1ccc2c(cnn2Cc2ccc(F)c(F)c2)c1` [Compound A9], the Kp in data set [1] was above 1. For the same molecule, the “Fxn >2X (concentration required for a 2-fold increase in FXN mRNA)” value with Frataxin (FXN) mRNA is reported as “A (A if less than 5 μM)”. The “Acid Stability % Left 24 hr” value in data set [2] is given as “A (A corresponds to more than 60%)”. In the case of `Nc1ccccc1NC(=O)c1ccc2c(cnn2Cc2cccnc2)c1` [Compound A1], in data set [1], the Kp was 0.2 to 0.5.

`Nc1cc(F)ccc1NC(=O)c1ccc2c(cnn2Cc2cncc(F)c2)c1` [Compound A7]: the Kp in data set [1] was in the range of 0.2 to 0.5. Further, in data set [2], the “Acid Stability % Left 24 hr” value is “B (B is between 40 and 60%)”. As to `Nc1cc(F)ccc1NC(=O)c1ccc2c(cnn2Cc2cccnc2)c1` [Compound A6], the “Acid Stability % Left 24 hr” value in data set [2] is given as “A (A corresponds to more than 60%)”.

Regarding `Cn1cc(Cn2ncc3cc(C(=O)Nc4ccccc4N)ccc32)cn1` [Compound A3], the Kp in data set [1] lay in the range of 0.2 to 0.5. As for `Nc1cc(F)ccc1NC(=O)c1ccc2c(cnn2CC2CC2)c1` [Compound A12], the Kp in data set [1] lay in the range of 0.5 to 1. In addition, the “Fxn >2X (concentration required for a 2-fold increase in FXN mRNA)” value in the data set on Frataxin (FXN) mRNA is on record as “C (C if greater than 10 μM)”. Besides, the “Acid Stability % Left 24 hr” value in data set [2] is “B (B is between 40 and 60%)”. For `Cc1ccc(Cn2ncc3cc(C(=O)Nc4ccc(F)cc4N)ccc32)c(C)n1` [Compound A8], the “Acid Stability % Left 24 hr” value in data set [2] is “A (A corresponds to more than 60%)”. With `Cc1ccc(Cn2cc3cc(C(=O)Nc4ccccc4N)ccc3n2)c(C)n1` [Compound A15], in data set [1], the Kp was below 0.1. As for `Nc1ccccc1NC(=O)c1ccc2c(cnn2Cc2cncc(F)c2)c1` [Compound A4, N-(2-aminophenyl)-1-((5-fluoropyridin-3-yl)methyl)-1H-indazole-5-carboxamide], in data set [1], the Kp lay within 0.2 to 0.5. On the same count and under the same terms, with `Cc1ccc(Cn2ncc3cc(C(=O)Nc4ccccc4N)ccc32)c(C)n1` [Compound A5] the figure was 0.2 to 0.5; with `Nc1ccccc1NC(=O)c1ccc2nn(Cc3cccnc3)cc2c1` [Compound A13], below 0.1. Regarding `Nc1ccccc1NC(=O)c1ccc2c(cnn2Cc2ccccc2)c1` [Compound A2], in data set [1], the Kp was above 1. Also, in data set [2], the “Acid Stability % Left 24 hr” value was “B (B is between 40 and 60%)”.
